# Experimental data as given in patent US12492173B2, “Herbicidal substituted N-tetrazolyl aryl carboxamides” (Bayer Aktiengesellschaft, priority 2019, dated 2025).
# Experiments:
# Assay type in all cases: in vivo
# Echinochloa crus-galli = assay: Post-emergence herbicidal action, ECHCG; parameters: key: % herbicidal action vs untreated; 100 = plants died, 0 = like control
# How it was run: (§1)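 Treatment: post-emergence spray, one-leaf stage. Medium: sandy loam, greenhouse. Carrier: 600–800 l/ha water, 0.2% wetting agent. Read-out: visual % activity at ~3 weeks, untreated plants as reference.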
# Setaria viridis [1] = assay: Pre-emergence herbicidal action, SETVI; parameters: key to Herbicidal action against SETVI: % activity: 100 = plants have died, 0 = like control plants; settings: for herbicidal activity SETVI: dosage 320 g/ha, scored visually after 3 weeks vs untreated controls (100% = plants have died)
# How it was run: (§2)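 Seeds sown in sandy loam in pots and covered with soil; compounds formulated as WP or EC were sprayed onto the soil surface as aqueous suspension/emulsion at 600 to 800 l/ha water with 0.2% wetting agent. Greenhouse growth; visual damage scored after 3 weeks versus untreated controls (100% = plants died, 0% = like control).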
# Setaria viridis [2] = assay: Post-emergence herbicidal action, SETVI; parameters: key: % herbicidal action vs untreated; 100 = plants died, 0 = like control
# How it was run: as §1
# Amaranthus retroflexus = assay: Pre-emergence herbicidal action, AMARE; settings: dosage 320 g/ha; for herbicidal activity AMARE: scored visually after 3 weeks vs untreated controls (100% = plants have died)
# How it was run: as §2
# Abutilon theophrasti = assay: Post-emergence herbicidal action, ABUTH; parameters: key: % herbicidal action vs untreated; 100 = plants died, 0 = like control
# How it was run: as §1
# Polygonum convolvulus = assay: Pre-emergence herbicidal action, POLCO; settings: for herbicidal activity POLCO: dosage 320 g/ha, scored visually after 3 weeks vs untreated controls (100% = plants have died)
# How it was run: as §2
# [3] = comparative experiment, 20 g of a.i./ha
SMILES,"herbicidal action ECHCG (Echinochloa crus-galli; post-emergence, dosage 80 g/ha) [%]",herbicidal activity SETVI (Setaria viridis [1]) [%],"herbicidal action SETVI (Setaria viridis [2]; post-emergence, dosage 80 g/ha) [%]",herbicidal activity AMARE (Amaranthus retroflexus) [%],"herbicidal action ABUTH (Abutilon theophrasti; post-emergence, dosage 80 g/ha) [%]",herbicidal activity POLCO (Polygonum convolvulus) [%],herbicidal action ECHCG (Echinochloa crus-galli; Dosage 80 g/ha),herbicidal action SETVI (Setaria viridis [2]; Dosage 80 g/ha),herbicidal action ABUTH (Abutilon theophrasti; Dosage 80 g/ha),"Herbicidal action against ECHCG (Echinochloa crus-galli; comparative experiment, post-emergence, 5 g of a.i./ha)","Herbicidal action against ECHCG (Echinochloa crus-galli; post-emergence, dosage 80 g/ha)","Herbicidal action against SETVI (Setaria viridis [2]; post-emergence, dosage 80 g/ha)",Herbicidal action against POLCO (Polygonum convolvulus; [3]),Herbicidal action against SETVI (Setaria viridis [1]; [3]),herbicidal action AMARE (Amaranthus retroflexus) [%]
Cn1nnnc1NC(=O)c1ccc(C(F)(F)F)c(C[S+](C)[O-])c1Cl (racemic) [Example 1-297],100,100,80,100,80,,,,,,,,,,
Cc1c(C(=O)Nc2nnnn2C)ccc(C(F)(F)F)c1C[S+](C)[O-] (centres unmarked) [Example 1-84],90,100,100,,90,90,,,,,,,,,
Cc1c(C(=O)Nc2nnnn2C)ccc(C(F)(F)F)c1CS(C)(=O)=O [Example 1-85],,100,,100,,90,90,100,90,,,,,,
CCSCc1c(C(F)(F)F)ccc(C(=O)Nc2nnnn2C)c1C [Example 1-86],80,100,80,100,80,100,,,,,,,,,
"CSCc1c(C(F)F)ccc(C(=O)Nc2nnnn2C)c1C [Example 1-107, 4-(difluoromethyl)-2-methyl-3-[(methylsulfanyl)methyl]-N-(1-methyl-1H-tetrazol-5-yl)benzamide]",,100,,100,,80,90,90,80,80,,,,,
Cc1c(C(=O)Nc2nnnn2C)ccc(C(F)F)c1CS(C)(=O)=O [Example 1-109],,100,,100,,90,100,90,90,,,,,,
COc1c(C(=O)Nc2nnnn2C)ccc(C(F)(F)F)c1CSC [Example 1-134],,100,,100,,80,100,100,100,,90,100,30,,
CSCc1c(C(F)(F)F)ccc(C(=O)Nc2nnnn2C)c1SC [Example 1-161],,100,,100,,,90,100,90,,,,,,
CCSCc1c(C(F)F)ccc(C(=O)Nc2nnnn2C)c1SCC [Example 1-191],,100,,100,,100,100,100,100,,,,,,
CSCc1c(C(F)(F)F)ccc(C(=O)Nc2nnnn2C)c1F [Example 1-242],,100,,100,,80,100,90,90,,,,,,
Cn1nnnc1NC(=O)c1ccc(C(F)(F)F)c(C[S+](C)[O-])c1F (centres unmarked) [Example 1-243],,100,,100,,,100,100,90,,,,,,
Cn1nnnc1NC(=O)c1ccc(C(F)(F)F)c(CS(C)(=O)=O)c1F [Example 1-244],,100,,100,,,90,100,90,,,,,,
Cc1ccc(C(=O)Nc2nnnn2C)c(Cl)c1CS(C)(=O)=O [Example 1-289],,90,,100,,80,100,90,,,,,,,
CSCc1c(C(F)(F)F)ccc(C(=O)Nc2nnnn2C)c1Cl [Example 1-296],100,100,100,100,100,,,,,,,,,,
Cn1nnnc1NC(=O)c1ccc(C(F)(F)F)c(CS(C)(=O)=O)c1Cl [Example 1-298],90,100,100,100,80,,,,,,,,,,
CCS(=O)(=O)Cc1c(C(F)(F)F)ccc(C(=O)Nc2nnnn2C)c1Cl [Example 1-301],,100,,100,,100,90,90,80,,,,,,
C=CCSCc1c(C(F)(F)F)ccc(C(=O)Nc2nnnn2C)c1Cl [Example 1-308],100,100,100,100,100,100,,,,,,,,,
CSCc1c(C(F)(F)F)ccc(C(=O)Nc2nnnn2C)c1Br [Example 1-380],90,100,90,100,90,,,,,,,,,,
Cn1nnnc1NC(=O)c1ccc(C(F)(F)F)c(C[S+](C)[O-])c1Br (centres unmarked) [Example 1-381],90,100,100,100,100,90,,,,,,,,80,
CCn1nnnc1NC(=O)c1ccc(S(C)(=O)=O)c(CS(C)(=O)=O)c1C [Example 2-39],,,,,,,90,100,90,,,,,,100
CCn1nnnc1NC(=O)c1ccc(C)c(CSC)c1Cl [Example 2-287],,90,,100,,,100,90,80,,,,,,
CCn1nnnc1NC(=O)c1ccc(C(F)(F)F)c(C[S+](C)[O-])c1Br (centres unmarked) [Example 2-381],90,100,100,100,90,,,,,,,,,,
CCCn1nnnc1NC(=O)c1ccc(C(F)(F)F)c(CS(=O)(=O)CC)c1C [Example 3-88],,100,,100,,,90,90,80,,,,,,
CCCn1nnnc1NC(=O)c1ccc(C(F)(F)F)c(C[S+](C)[O-])c1Cl (centres unmarked) [Example 3-297],80,100,80,100,80,,,,,,,,,,
